Results taken from patent US9206191B2, “Indazoles for the treatment and prophylaxis of respiratory syncytial virus infection” (Hoffmann-La Roche Inc., priority 2012, dated 2015).

tested on: RSV Long strain; experiment: Viral Cytopathic Effect (CPE) Assay; type: cell-based; details: human respiratory syncytial virus, 144 h, cell viability after 6 days, Cell Counting kit-8

Question: How did the EC50 turn out when `CS(=O)(=O)c1nn(Cc2nc3cc(Cl)ccc3n2[C@@H]2CCN(CC(F)(F)F)C2)c2cnccc12` [Example 2-20, 1-({5-Chloro-1-[(3R)-1-(2,2,2-trifluoroethyl)pyrrolidin-3-yl]-1H-benzimidazol-2-yl}methyl)-3-(methylsulfonyl)-1H-pyrazolo[3,4-c]pyridine] was run?
Answer: 188 nM

Question: With `CS(=O)(=O)c1nn(Cc2nc3cc(Cl)ccc3n2CCC2COC2)c2cnccc12` [Example 2-23, 1-({5-Chloro-1-[2-(oxetan-3-yl)ethyl]-1H-benzimidazol-2-yl}methyl)-3-(methylsulfonyl)-1H-pyrazolo[3,4-c]pyridine] as the compound, how does the EC50 read?
Answer: 6 nM

Question: With `CS(=O)(=O)c1nn(Cc2nc3cc(Cl)ccc3n2C2CC3(COC3)C2)c2cnccc12` [Example 2-24, 1-{[5-Chloro-1-(2-oxaspiro[3.3]hept-6-yl)-1H-benzimidazol-2-yl]methyl}-3-(methylsulfonyl)-1H-pyrazolo[3,4-c]pyridine] as the compound, how does the EC50 read?
Answer: 8.66 nM

Question: With `CC1(CCn2c(Cn3nc(S(C)(=O)=O)c4ccncc43)nc3cc(Cl)ccc32)COC1` [Example 2-25, 1-({5-Chloro-1-[2-(3-methyloxetan-3-yl)ethyl]-1H-benzimidazol-2-yl}methyl)-3-(methylsulfonyl)-1H-pyrazolo[3,4-c]pyridine] as the compound, how does the EC50 read?
Answer: 6.79 nM

Question: Which EC50 does the source give for `CS(=O)(=O)c1nn(Cc2nc3cc(Cl)ccc3n2[C@H]2C[C@](C)(O)C2)c2cnccc12` [Example 2-26, trans-3-(5-Chloro-2-{[3-(methylsulfonyl)-1H-pyrazolo[3,4-c]pyridin-1-yl]methyl}-1H-benzimidazol-1-yl)-1-methylcyclobutanol] here?
Answer: 7 nM

Question: How did the EC50 turn out when `CS(=O)(=O)c1nn(Cc2nc3cc(Cl)ccc3n2CCCO)c2cnccc12` [Example 2-27, 3-(5-Chloro-2-{[3-(methylsulfonyl)-1H-pyrazolo[3,4-c]pyridin-1-yl]methyl}-1H-benzimidazol-1-yl)propan-1-ol] was run?
Answer: 7.53 nM

Question: How did the EC50 turn out when `CS(=O)(=O)c1nn(Cc2nc3cc(Cl)ccc3n2C2CCOC2)c2cnccc12` (stereo not drawn) [Example 2-28, 1-{[5-Chloro-1-(tetrahydrofuran-3-yl)-1H-benzimidazol-2-yl]methyl}-3-(methylsulfonyl)-1H-pyrazolo[3,4-c]pyridine] was run?
Answer: 7.57 nM

Question: How did the EC50 turn out when `CC(C)(O)CCn1c(Cn2nc(S(C)(=O)=O)c3ccncc32)nc2cc(Cl)ccc21` [Example 2-29, 4-(5-Chloro-2-{[3-(methylsulfonyl)-1H-pyrazolo[3,4-c]pyridin-1-yl]methyl}-1H-benzimidazol-1-yl)-2-methylbutan-2-ol] was run?
Answer: 8.04 nM

Question: For `CS(=O)(=O)c1nn(Cc2nc3cc(Cl)ccc3n2CCCCO)c2cnccc12` [Example 2-30, 4-(5-Chloro-2-{[3-(methylsulfonyl)-1H-pyrazolo[3,4-c]pyridin-1-yl]methyl}-1H-benzimidazol-1-yl)butan-1-ol], which EC50 is on record?
Answer: 4.81 nM

Question: With `CS(=O)(=O)c1nn(Cc2nc3cc(Cl)ccc3n2CC2CCOC2)c2cnccc12` (stereo not drawn) [Example 2-31, 1-{[5-Chloro-1-(tetrahydrofuran-3-ylmethyl)-1H-benzimidazol-2-yl]methyl}-3-(methylsulfonyl)-1H-pyrazolo[3,4-c]pyridine] as the compound, how does the EC50 read?
Answer: 4.34 nM

Question: How did the EC50 turn out when `CS(=O)(=O)c1nn(Cc2nc3cc(Cl)ccc3n2[C@H]2C[C@H](O)C2)c2cnccc12` [Example 2-32, trans-3-(5-Chloro-2-{[3-(methylsulfonyl)-1H-pyrazolo[3,4-c]pyridin-1-yl]methyl}-1H-benzimidazol-1-yl)cyclobutanol] was run?
Answer: 3.32 nM

Question: For `CS(=O)(=O)c1nn(Cc2nc3cc(Cl)ccc3n2[C@H]2C[C@@](C)(O)C2)c2cnccc12` [Example 2-33, cis-3-(5-Chloro-2-{[3-(methylsulfonyl)-1H-pyrazolo[3,4-c]pyridin-1-yl]methyl}-1H-benzimidazol-1-yl)-1-methylcyclobutanol], which EC50 is on record?
Answer: 9.85 nM

Question: `CS(=O)(=O)c1nn(Cc2nc3cc(Cl)ccc3n2CCC2(O)CC2)c2cnccc12` [Example 2-34, 1-[2-(5-Chloro-2-{[3-(methylsulfonyl)-1H-pyrazolo[3,4-c]pyridin-1-yl]methyl}-1H-benzimidazol-1-yl)ethyl]cyclopropanol] was tested. Which EC50 did it give?
Answer: 8.7 nM

Question: For `CS(=O)(=O)c1nn(Cc2nc3cc(Cl)ccc3n2CCOCCO)c2cnccc12` [Example 2-35, 2-[2-(5-chloro-2-{[3-(methylsulfonyl)-1H-pyrazolo[3,4-c]pyridin-1-yl]methyl}-1H-benzimidazol-1-yl)ethoxy]ethanol], which EC50 is on record?
Answer: 15 nM

Question: For `CS(=O)(=O)c1nn(Cc2nc3cc(Cl)ccc3n2[C@H]2CC[C@@](C)(O)CC2)c2cnccc12` [Example 2-37, cis-4-(5-chloro-2-{[3-(methylsulfonyl)-1H-pyrazolo[3,4-c]pyridin-1-yl]methyl}-1H-benzimidazol-1-yl)-1-methylcyclohexanol], which EC50 is on record?
Answer: 6 nM

Question: `CC(C)(O)CCCn1c(Cn2nc(S(C)(=O)=O)c3ccncc32)nc2cc(Cl)ccc21` [Example 2-38, 5-(5-chloro-2-{[3-(methylsulfonyl)-1H-pyrazolo[3,4-c]pyridin-1-yl]methyl}-1H-benzimidazol-1-yl)-2-methylpentan-2-ol] was tested. Which EC50 did it give?
Answer: 8 nM

Question: How did the EC50 turn out when `CC(C)(O)[C@H]1C[C@H](n2c(Cn3nc(S(C)(=O)=O)c4ccncc43)nc3cc(Cl)ccc32)C1` [Example 2-39, 2-[trans-3-(5-chloro-2-{[3-(methylsulfonyl)-1H-pyrazolo[3,4-c]pyridin-1-yl]methyl}-1H-benzimidazol-1-yl)cyclobutyl]propan-2-ol] was run?
Answer: 2 nM

Question: With `CS(=O)(=O)c1nn(Cc2nc3cc(Cl)ccc3n2[C@H]2C[C@H](C(=O)O)C2)c2cnccc12` [Example 2-41, trans-3-(5-chloro-2-{[3-(methylsulfonyl)-1H-pyrazolo[3,4-c]pyridin-1-yl]methyl}-1H-benzimidazol-1-yl)cyclobutanecarboxylic acid] as the compound, how does the EC50 read?
Answer: 7 nM

Question: `CS(=O)(=O)c1nn(Cc2nc3cc(Cl)ccc3n2CCC(O)C(F)(F)F)c2cnccc12` (stereo not drawn) [Example 2-42, 4-(5-chloro-2-{[3-(methylsulfonyl)-1H-pyrazolo[3,4-c]pyridin-1-yl]methyl}-1H-benzimidazol-1-yl)-1,1,1-trifluorobutan-2-ol] was tested. Which EC50 did it give?
Answer: 1.6 nM

Question: With `CS(=O)(=O)c1nn(Cc2nc3cc(Cl)ccc3n2CCC(O)C(F)F)c2cnccc12` (stereo not drawn) [Example 2-44, 4-(5-chloro-2-{[3-(methylsulfonyl)-1H-pyrazolo[3,4-c]pyridin-1-yl]methyl}-1H-benzimidazol-1-yl)-1,1-difluorobutan-2-ol] as the compound, how does the EC50 read?
Answer: 3.3 nM

Question: With `CS(=O)(=O)c1nn(Cc2nc3cc(Cl)ccc3n2C2C[C@@H](O)[C@H](O)C2)c2cnccc12` [Example 2-45, trans-4-(5-chloro-2-{[3-(methylsulfonyl)-1H-pyrazolo[3,4-c]pyridin-1-yl]methyl}-1H-benzimidazol-1-yl)cyclopentane-1,2-diol] as the compound, how does the EC50 read?
Answer: 6.1 nM

Question: How did the EC50 turn out when `CS(=O)(=O)c1nn(Cc2nc3cc(Cl)ccc3n2[C@H]2C[C@@](O)(CO)C2)c2cnccc12` [Example 2-46, trans-3-(5-chloro-2-{[3-(methylsulfonyl)-1H-pyrazolo[3,4-c]pyridin-1-yl]methyl}-1H-benzimidazol-1-yl)-1-(hydroxymethyl)cyclobutanol] was run?
Answer: 7.2 nM

Question: For `CS(=O)(=O)c1nn(Cc2nc3cc(Cl)ccc3n2-c2ccc(F)nc2)c2ccccc12` [Example 3-1, 1-{[5-Chloro-1-(6-fluoropyridin-3-yl)-1H-benzimidazol-2-yl]methyl}-3-(methylsulfonyl)-1H-indazole], which EC50 is on record?
Answer: 9.86 nM

Question: For `CS(=O)(=O)c1nn(Cc2nc3cc(Cl)ccc3n2-c2ccc(F)nc2)c2cnccc12` [Example 3-2, 1-{[5-Chloro-1-(6-fluoropyridin-3-yl)-1H-benzimidazol-2-yl]methyl}-3-(methylsulfonyl)-1H-pyrazolo[3,4-c]pyridine], which EC50 is on record?
Answer: 18.7 nM

Question: For `CS(=O)(=O)c1nn(Cc2nc3cc(Cl)ccc3n2-c2ccc(F)nc2)c2c[n+]([O-])ccc12` [Example 3-3, 1-{[5-Chloro-1-(6-fluoropyridin-3-yl)-1H-benzimidazol-2-yl]methyl}-3-(methylsulfonyl)-1H-pyrazolo[3,4-c]pyridine 6-oxide], which EC50 is on record?
Answer: 1540 nM

Question: Which EC50 does the source give for `COc1ccc(-n2c(Cn3nc(S(C)(=O)=O)c4ccccc43)nc3cc(Cl)ccc32)cn1` [Example 3-4, 1-{[5-Chloro-1-(6-methoxypyridin-3-yl)-1H-benzimidazol-2-yl]methyl}-3-(methylsulfonyl)-1H-indazole] here?
Answer: 33.5 nM

Question: `CS(=O)(=O)c1nn(Cc2nc3cc(Cl)ccc3n2-c2ccc(Cl)nc2)c2ccccc12` [Example 3-5, 1-{[5-Chloro-1-(6-chloropyridin-3-yl)-1H-benzimidazol-2-yl]methyl}-3-(methylsulfonyl)-1H-indazole] was tested. Which EC50 did it give?
Answer: 18.1 nM

Question: `CS(=O)(=O)c1nn(Cc2nc3cc(Cl)ccc3n2CCCC(F)(F)F)c2ccccc12` [Example 4-1, 1-{[5-Chloro-1-(4,4,4-trifluorobutyl)-1H-benzimidazol-2-yl]methyl}-3-(methylsulfonyl)-1H-indazole] was tested. Which EC50 did it give?
Answer: 14.6 nM

Question: Which EC50 does the source give for `CS(=O)(=O)c1nn(Cc2nc3cc(Cl)ccc3n2CCCC(F)(F)F)c2c[n+]([O-])ccc12` [Example 4-2, 1-{[5-Chloro-1-(4,4,4-trifluorobutyl)-1H-benzimidazol-2-yl]methyl}-3-(methylsulfonyl)-1H-pyrazolo[3,4-c]pyridine 6-oxide] here?
Answer: 15.9 nM

Question: Which EC50 does the source give for `CS(=O)(=O)c1nn(Cc2nc3cc(Cl)cc(F)c3n2CCC(F)(F)F)c2cnccc12` [Example 5-1, 1-{[5-Chloro-7-fluoro-1-(3,3,3-trifluoropropyl)-1H-benzimidazol-2-yl]methyl}-3-(methylsulfonyl)-1H-pyrazolo[3,4-c]pyridine] here?
Answer: 17 nM

Question: `CS(=O)(=O)c1nn(Cc2nc3cc(Cl)cc(F)c3n2CCCC(F)(F)F)c2cnccc12` [Example 5-2, 1-{[5-Chloro-7-fluoro-1-(4,4,4-trifluorobutyl)-1H-benzimidazol-2-yl]methyl}-3-(methylsulfonyl)-1H-pyrazolo[3,4-c]pyridine] was tested. Which EC50 did it give?
Answer: 7 nM

Question: With `CC(=O)N1CC[C@@H](n2c(Cn3nc(S(C)(=O)=O)c4ccncc43)nc3cc(Cl)ccc32)C1` [Example 6-1, 1-[(3R)-3-(5-Chloro-2-{[3-(methylsulfonyl)-1H-pyrazolo[3,4-c]pyridin-1-yl]methyl}-1H-benzimidazol-1-yl)pyrrolidin-1-yl]ethanone] as the compound, how does the EC50 read?
Answer: 7 nM

Question: `CC(=O)N1CCC(n2c(Cn3nc(S(C)(=O)=O)c4ccccc43)nc3cc(Cl)ccc32)C1` (stereo not drawn) [Example 6-2, 1-[3-(5-Chloro-2-{[3-(methylsulfonyl)-1H-indazol-1-yl]methyl}-1H-benzimidazol-1-yl)pyrrolidin-1-yl]ethanone] was tested. Which EC50 did it give?
Answer: 8.75 nM
